Measured values taken from PubChem BioAssay (NCI).
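All cell lines were grown in 96-well plates and treated with compound for 48 hours. GI50: concentration for 50% inhibition of growth. The concentration for full growth arrest is given as TGI.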

Assays:
Assay in all cases: NCI anticancer screen, dose series, 48 h
[1] = system: EKVX NSCLC
[2] = system: NCI/ADR-RES ovarian
[3] = system: PC-3 prostate
[4] = system: SF-295 CNS
[5] = system: SNB-75 CNS
[6] = system: SR leukemia
[7] = system: U251 CNS
[8] = system: UACC-257 melanoma
[9] = system: UO-31 renal
[10] = system: IGROV1 ovarian

| SMILES | GI50 [1] | TGI [1] | GI50 [2] | TGI [2] | GI50 [3] | TGI [3] | GI50 [4] | TGI [4] | GI50 [5] | TGI [5] | GI50 [6] | TGI [6] | GI50 [7] | TGI [7] | GI50 [8] | TGI [8] | GI50 [9] | TGI [9] | GI50 [10] | TGI [10] |
| --- | --- | --- | --- | --- | --- | --- | --- | --- | --- | --- | --- | --- | --- | --- | --- | --- | --- | --- | --- | --- |
| COc1ccccc1/C=N\N=C(N/N=C/c1ccccc1OC)N/N=C/c1ccccc1OC | 2.68 µM | > 100 µM | 3.12 µM | 10.5 µM | 2.77 µM | > 100 µM | 2.03 µM | 5.11 µM | 2.72 µM | 9.4 µM | 3.16 µM | 12.5 µM | 2.67 µM | 15 µM | 3.12 µM | 10.2 µM | 1.81 µM | 7.25 µM | – | – |
| CO[C@@H]1/C=C(C)/C=C/[C@@H](C)/C=C(\C)C(=O)OC(/C(C)=C/C=C(\C)CNC(=O)[C@H](CO)NC=O)[C@@H](C)/C=C/C=C/[C@H](OC)CC/C=C(C)/C=C/C1 (stereo partly drawn) | 5.56 µM | 15.6 µM | 0.0587 µM | 15.4 µM | < 0.005 µM | 6.91 µM | < 0.005 µM | 0.00951 µM | 0.242 µM | > 25.8 µM | < 0.005 µM | > 11.9 µM | < 0.005 µM | 0.214 µM | 0.0238 µM | 0.0365 µM | < 0.005 µM | 0.425 µM | < 0.005 µM | 9.15 µM |
| O=C(c1ccco1)c1c(C(F)(F)F)n([O-])c2ccccc2[n+]1=O | 0.226 µM | 0.741 µM | 0.879 µM | 12.7 µM | 0.338 µM | 3.61 µM | 1.32 µM | 7.69 µM | 8.36 µM | 25.1 µM | 0.0737 µM | 0.523 µM | 0.719 µM | 18.2 µM | 4.32 µM | 14.7 µM | 0.755 µM | 2.03 µM | 0.549 µM | 1.21 µM |
| COc1ccc2c(c1)C(c1ccccc1Cl)=Nc1c(n[nH]c1C)N2 | – | – | > 25 µM | > 25 µM | > 22.7 µM | > 25 µM | > 25 µM | > 25 µM | 3.14 µM | > 17.3 µM | 10.5 µM | > 25 µM | 5.74 µM | > 25 µM | > 25 µM | > 25 µM | 13.9 µM | > 25 µM | > 25 µM | > 25 µM |
| N#CC1=C(N)NC(=O)NC12Nc1ccccc1S2 (stereo not drawn) | – | – | 24.7 µM | > 68.8 µM | 28 µM | > 57.9 µM | 26.4 µM | > 65.7 µM | 51 µM | > 100 µM | 10.4 µM | > 100 µM | 21.4 µM | > 55 µM | 1.42 µM | – | 36.2 µM | > 100 µM | > 45.7 µM | > 74.8 µM |
| O=C(Cc1cccc(OC(F)(F)F)c1)Nc1ccc(CCCCc2nnc(NC(=O)Cc3ccccn3)s2)nn1 | 13.3 µM | 68.7 µM | > 100 µM | > 100 µM | 18.3 µM | > 100 µM | 11.5 µM | 31.4 µM | 11.1 µM | 38.6 µM | 33.7 µM | > 100 µM | – | – | 29.3 µM | > 100 µM | 2.85 µM | 28.9 µM | 17.3 µM | > 100 µM |
| COc1cccc2c1C(=O)c1c(O)c3c(c(O)c1C2=O)C[C@@](O)(C(=O)CO)C[C@@H]3OC1C[C@H](N)[C@H](O)[C@H](C)O1 (stereo partly drawn) | 0.201 µM | 5.28 µM | – | – | 0.112 µM | 1.22 µM | 0.0371 µM | 0.372 µM | 0.034 µM | 0.147 µM | 0.00558 µM | 0.826 µM | 0.025 µM | 2.25 µM | 0.102 µM | 1.8 µM | 0.152 µM | 1.14 µM | 0.0901 µM | 8.58 µM |
| COc1ccc(/C=C\c2cc(OC)c(OC)c(OC)c2)cc1OC(=O)CCC(=O)O | 51.5 µM | > 100 µM | – | – | – | > 100 µM | – | 67.7 µM | – | > 100 µM | – | > 100 µM | – | – | < 0.0001 µM | – | < 0.0001 µM | > 100 µM | – | > 100 µM |
| N#CCc1ncc(-c2ccc(C(F)(F)F)cc2)c(NC2CCCCCC2)n1 | – | – | > 10 µM | > 10 µM | > 10 µM | > 10 µM | > 10 µM | > 10 µM | > 10 µM | > 10 µM | > 10 µM | > 10 µM | > 10 µM | > 10 µM | > 10 µM | > 10 µM | > 10 µM | > 10 µM | > 10 µM | > 10 µM |
| CN(C)C(=O)c1cc2cnc(Nc3ccc(-c4csc5c(=O)cc(N6CCOCC6)oc45)cc3)nc2n1C1CCCC1 | 0.214 µM | 1.98 µM | 0.375 µM | > 65.6 µM | 0.22 µM | 1.47 µM | 0.242 µM | 1.14 µM | 0.085 µM | 0.373 µM | 0.101 µM | > 80 µM | 0.2 µM | > 100 µM | 0.269 µM | 0.909 µM | 0.0537 µM | 0.287 µM | – | – |
| O=C(CCl)N1c2ccccc2Sc2ccc3ccccc3c21 | – | – | 2.18 µM | 5.26 µM | 1.47 µM | 3.06 µM | 1.68 µM | 3.15 µM | 1.16 µM | 2.4 µM | 0.634 µM | 9.74 µM | 1.55 µM | 2.95 µM | 1.48 µM | 2.87 µM | 0.281 µM | 1.07 µM | 0.567 µM | 1.5 µM |
| O=C(N/N=C/c1ccccc1O)C(=O)Nc1ccc(F)cc1 | – | – | 3 µM | > 100 µM | 4.21 µM | > 100 µM | 1.81 µM | 15.5 µM | 14.2 µM | 69.4 µM | 2.52 µM | > 100 µM | 2.75 µM | > 100 µM | 2.85 µM | 15 µM | 2.18 µM | 54.1 µM | 4.29 µM | > 100 µM |
| CN1CCN(Cc2ccc(NC(=O)c3ccc(C#Cc4c(N)ncc5ccc(F)cc45)cc3)cc2C(F)(F)F)CC1 | 0.94 µM | 1.85 µM | 1.08 µM | 2.32 µM | 0.834 µM | 1.61 µM | 1.04 µM | 2.04 µM | – | – | 0.897 µM | 2.32 µM | 0.851 µM | 1.59 µM | 1.02 µM | 1.91 µM | 0.967 µM | 2.26 µM | 1.13 µM | 2.56 µM |
| O=C(Nc1ccccc1O)c1ccc(Oc2cccc(C(=O)Nc3ccccc3O)c2)cc1 | – | – | 1.5 µM | 6.7 µM | 1.84 µM | 10.4 µM | 2.88 µM | 9.85 µM | 1.67 µM | 7.73 µM | 0.56 µM | 11.4 µM | 2.13 µM | 8.16 µM | 1.69 µM | 8.21 µM | 1.36 µM | 6.39 µM | 5.25 µM | 27.3 µM |
| O=c1cc(-c2ccccc2)[nH]n1-c1nc2ccccc2[nH]1 | – | – | 3.68 µM | > 100 µM | 4.22 µM | 44.5 µM | 2.92 µM | > 100 µM | 4.66 µM | > 100 µM | 5.86 µM | > 100 µM | – | – | 6.18 µM | > 100 µM | 5.68 µM | 67.6 µM | 6.81 µM | > 100 µM |
| Cc1cc(NS(=O)(=O)c2ccc(NC(=O)c3cccc4c(Nc5ccc(S(=O)(=O)N=C(N)N)cc5)c5ccccc5nc34)cc2)no1 | – | > 100 µM | – | – | – | – | – | > 100 µM | – | > 100 µM | – | > 100 µM | – | > 100 µM | – | > 100 µM | – | > 100 µM | – | > 100 µM |
| COc1ccc(-c2ccc(-c3ccc(-c4ccc(C(=N)N)cc4)s3)s2)cc1OC | – | – | 2.51 µM | 6.54 µM | 2.78 µM | 9.39 µM | 21.2 µM | 45.5 µM | 14.4 µM | 31 µM | 1.74 µM | 6 µM | – | – | 22 µM | 54.3 µM | 14.4 µM | 32.4 µM | 0.937 µM | 3.78 µM |
| C=C(c1ccc(C(=O)N(C)c2ccccc2N)cc1)C(C)N1C(=O)[C@H]2CCCN2C(=O)c2ccccc21 (stereo partly drawn) | 80.6 µM | > 100 µM | 20.2 µM | > 100 µM | 26.2 µM | > 100 µM | > 100 µM | > 100 µM | 17.1 µM | 77.5 µM | 18.7 µM | 74.9 µM | – | – | 34.7 µM | > 100 µM | 53.4 µM | > 100 µM | 69.5 µM | > 100 µM |
| COc1ccc2c(c1)C(=O)/C(=C/c1ncc([N+](=O)[O-])n1C)O2 | – | – | 0.391 µM | 6.47 µM | 1.25 µM | 5.46 µM | 1.5 µM | 3.88 µM | 1.12 µM | 2.63 µM | 0.0239 µM | 1.35 µM | 0.772 µM | 2.84 µM | 1.41 µM | 6.82 µM | 0.494 µM | 2.53 µM | 0.985 µM | 6.91 µM |
| CCN(CCCl)CCCNc1c2ccccc2nc2ccc(OC)cc12 | 557 µM | – | – | – | – | – | 308 µM | – | 532 µM | – | – | 1.04 µM | 387 µM | – | 457 µM | – | – | 2060 µM | – | 1510 µM |
| CCCCCCCCCCCCSC(=N)N | – | – | 10.5 µM | 26.3 µM | 9.13 µM | 23 µM | 2.35 µM | 5.55 µM | 16.2 µM | 35 µM | 1.79 µM | 4.4 µM | 2.64 µM | 8.74 µM | 13.8 µM | 27.3 µM | 5.71 µM | 19.8 µM | 2.77 µM | – |
